Experimental data reported in patent publication US5108916A, “Process for stereoselectively hydrolyzing, transesterifying or esterifying with immobilized isozyme of lipase from Candida rugosa” (priority 1989, dated 1992).
Where “and” joins values, the source holds several entries; their conditions need not be identical. Equal entries are not always repeated. Where two headings read alike, the source gives them in different places.

Experiments:
[1] = test system: CSC-2; assay: Effect of additives and solvents on hydrolysis of ketoprofen monoglyceride by CSC-2; format: biochemical, Candida rugosa; conditions: for % ee S-acid: 23 hr, 200 ul; for % ee: as E102; for Isolated % ee (S-Acid): extraction procedure I for oleic acid and corn oil, II for the others
Protocol: Hydrolysis of ketoprofen-monoglyceride (50mg) was carried out in various DMF-100mM (NH4)H2 PO4 buffer (pH 5.5) mixtures. In each flask a solution of ketoprofen monoglyceride (50mg) in DMF (200ul) was added. DMF was added followed by 100mM (NH4)H2 PO4 buffer. […] After 22 hours, 2%, 5%, and 10% DMF samples were acidified, extracted with CHCl3 (2×10ml) and analyzed. The other samples were analyzed directly as in Example 18. The acid produced decreases with increasing amount of DMF.
Small amounts of DMF were added to the reaction mixture to increase the solubility of KPG. In all cases 100mM ammonium phosphate buffer (pH 5.5) was used and 2% (v/v) detergents were added and the total volume was 10ml.
The buffer reaction (entry #2 in the table) contained enzyme in buffer (2 ml) and the buffer only (entry #1 in the table) reaction contained no enzyme.
The presence of a surfactant like Tween increases the solubility o lipophilic compounds in water. […] Tween 80 was added to make 1% and 2% solution (v/v). Bovine serum albumin (BSA) (10mg) was added to each of two flasks. A solution of 50mg of ketoprofen monoglyceride in 200ul DMF was added to each. After 20 hours at 250 rpm and 35° C. the reaction mixtures were acidified, extracted and analyzed by the usual HPLC procedure as in Example 18.
Various surfactants were used at 2% of the reaction volume to determine their effect on the enzymatic reaction involving the conversion of ketoprofen monoglyceride (KPG) to ketoprofen (KP). […] Flasks were covered with parafilm and incubated in a 35° C. water bath at 250 rpm, typically overnight. Reactions were stopped by acidification, extracted with CHCl3 (2×10 ml). The %acid and %ee were determined by the method of Example 18. It is to be noted that Hydrophile-Lipophile Balance (HLB) values have no apparent bearing on the ability of the surfactant to enhance the conversion of KPG to KP.
75 mg of KPG (in the absence of DMF) was individually weighed into 50 ml Erlenmeyer flasks. […] 9 ml of 100 mM (NH4)H2 PO4, pH 5.5 buffer was added, and the flasks were placed into a 35° C., 250 rpm water bath incubator for 20 hours. The reactions were acidified, extracted with CHCl3 and examined by HPLC as in Example 18. The %ee was determined as per Example 18.
Various amounts of oleic acid or its esters were added, and the reactions stopped at the times indicated, acidified, extracted with CHCl3 and analyzed as in Example 18.
An experiment was performed as in Example 41, but using 100, 200 and 500 ul of olive oil to determine if it would enhance the rate of conversion of KPG to KP. […] After 20 hours, all reactions were acidified, extracted with CHCl3 and analyzed by HPLC as in Example 18. The results are given below:
50 mg of KPG was weighed into Erlenmeyer flasks. […] Flasks were incubated at 35° C., 250 rpm for 23 hours. The reactions were stopped by acidification, extracted with CHCl3, and analyzed by HPLC as in Example 18. The additive is listed along with its percentage composition of glycerides of oleic acid.
To determine the problems associated with having oleic acid or oleate. esters in the reaction media, the following experiment was performed. […] Flasks were placed in a 35° C. incubator at 250 rpm, and the reactions were sampled by taking 200 ul aliquots at various time points. These aliquots were analyzed by HPLC (ODS-3 RAC column, CH3 OH: 10 mM (NH4)H2 PO4 (60:40) eluant, 4 ml/min, 254 nm detection) to determine the course of reaction. When approximately 40% acid was produced, the reactions were stopped by placing the flasks in the -70° C. freezer. Two extraction procedures were utilized to determine the best method of isolating S-Ketoprofen free of oleic acid. The first (listed as Extraction Procedure I in the following table) involved first making the solution basic (pH 10) with NaOH, then extracting with hexane, then CHCl3.

[2] = Conversion of ketoprofen esters in organic solvent/oleic acid media; format: biochemical
Protocol: To optimize the organic solvent used in the presence of oleic acid a variety of organic solvents were used, along with a variety of ketoprofen esters. In this experiment, 50 mg of ketoprofen esters were weighed into flasks, along with 1 ml of oleic acid and 9 ml of an organic solvent. The flasks were capped and incubated at 35° C., 250 rpm, for 10-26 hours before stopping the reaction by first adding 4 ml CHCl3 to solubilize the substrates and products, then filtering through a 0.2 um Gelman Nylaflo filter. Samples were then diluted in methanol and analyzed by HPLC as in Example 18. The experiment was also performed using 200 ul of oleic acid and 10ml buffer, which was acidified, extracted with CHCl3 and analyzed by HPLC as above.
One ml of oleic acid was added, as was 9 ml of buffer (100 mM (NH4)H2 PO4, pH 5.5) or organic solvent. Flasks were placed into a 35° C. incubator and shaken at 250 rpm for 13 hours. Reaction was stopped by adding 5 ml CHCl3 to solubilize the organic material and filtering the solutions using 0.2 um Gelman Nylaflo membranes to remove the enzyme. Samples were analyzed on an ODS-3 RAC column using CH3 OH:10 mM (NH4)H2PO4 (60:40) as eluant, flow rate 4 ml/min, and detection at 254 nm. %ee was determined by the resolution of diastereomeric amides on the above HPLC system, as per Example 18.

[3] = surfactant 2% of reaction volume, 200 ul DMF, enzyme alone = 100
[4] = 18 hr with 100 ul (b930-b936), 23 hr with 200 ul (b937-b944), None = CSC-2 alone
[5] = solvent/buffer 1:1 two phase, 16 hour reactions
[6] = 200 ul DMF, b1067-b1069 18 hr, b1070-b1084 23 hr, amounts: 200 ul except tributyrin, dilinolein, trilinoein 100 ul, monostearin, distearin 25 ul, tristearin 28 ul, 0 = CSC-2 alone
[7] = 5 g KPG, 50 mg CSC-2, 5 grams additive
[8] = additive 100 ul, 75 mg KPG, no DMF, 20 hours
[9] = additive 200 ul, 75 mg KPG, 20 hours
[10] = additive 500 ul, 75 mg KPG, 20 hours
[11] = solvent/buffer 1:1 two phase, 26 hours, buffer = 100

Tween 85
Relative Rate [1, 3]: 27

POE-2 stearyl ether [Brij 72]
Relative Rate [1, 3]: 106

CCCCCCCC/C=C\CCCCCCCC(=O)OC [oleic acid methyl ester]
% Acid [1, 4]: 51%
% ee S-acid ([1]; None = CSC-2 alone): 97%
Rate ([1]; as E158): 3

CCCCCCO [n-Hexanol]
Relative Rate [1, 5]: 0

CCC(=O)CC [3-Pentanone]
Relative Rate [1, 5]: 0

CCCCCCCC/C=C\CCCCCCCC(=O)OCC(O)CO (stereo not shown) [Monolein]
% Acid [1, 4]: 43%
Rate ([1]; as E158): 4

Span 60
Relative Rate [1, 3]: 108

CCCCCCCCCCCCCCCCCC(=O)OCC(COC(=O)CCCCCCCCCCCCCCCCC)OC(=O)CCCCCCCCCCCCCCCCC [tristearin]
% Acid [1, 6]: 25%

CC(C(=O)OCCCl)c1cccc(C(=O)c2ccccc2)c1 (stereo not shown) [2-Chloroethyl Ester, 2-chloroethyl ester of ketoprofen]
% ee ([2]; Buffer 10 ml, OA 200 ul): 96%
% Acid ([2]; Buffer 10 ml, OA 200 ul, enzyme not named in Example 55): 18%
% Acid ([2]; CHCl3 9 ml, OA 1 ml): 2%
% ee ([2]; CHCl3 9 ml, OA 1 ml): 3%
% Acid ([2]; Hexane 9 ml, OA 1 ml, 10-26 hours): 7%
% ee ([2]; Hexane 9 ml, OA 1 ml, * stopped at 10 Hr): 92%
% Acid ([2]; Isooctane 9 ml, OA 1 ml): 18%
% ee ([2]; Isooctane 9 ml, OA 1 ml, * stopped at 10 Hr): 97%
% Acid ([2]; Toluene 9 ml, OA 1 ml): 1%
% ee ([2]; Toluene 9 ml, OA 1 ml): < 1%

Span 40
Relative Rate [1, 3]: 99

Tween 20
Relative Rate [1, 3]: 39

CCCCC/C=C\C/C=C\CCCCCCCC(=O)OC [linoleic acid methyl ester]
% Acid [1, 6]: 34%

CC(=O)OCC(COC(C)=O)OC(C)=O [Triacetin]
% Acid [1, 6]: 12%

Tween 60
Relative Rate [1, 3]: 23

Tween 80
Final % Acid [1, 7]: 34.9%
Rate [1, 7]: 0.46 µmol/h/mg
Relative Rate ([1]; 20 hours, b844=no Tween no BSA, b846=1% Tween and BSA, b848=2% Tween and BSA, b850=2% Tween no BSA, 1200 min): 114 and 142 and 118
% Acid [1, 8]: 12%
S-acid (% ee) ([1]; additive 200 ul): 96
% Acid [1, 9]: 22%
% Acid [1, 10]: 18%
% ee [1]: 96% and 92% and 86% and 97% and 93%
ee of S-acid ([1]; as E149): 95% and 96%
Isolated % ee (S-Acid) [1]: 94.3%
Relative Rate [1, 3]: 136

POE-20 oleyl ether [Brij 99]
Relative Rate [1, 3]: 15

Tween 61
Relative Rate [1, 3]: 92

Tween 65
Relative Rate [1, 3]: 39

CCCC(=O)OCC(COC(=O)CCC)OC(=O)CCC [tributyrin]
% Acid [1, 6]: 3%

Span 80
% Acid [1, 8]: 27%
S-acid (% ee) ([1]; additive 200 ul): 97
% Acid [1, 9]: 28%
% Acid [1, 10]: 27%
Relative Rate [1, 3]: 160

O=C1CCCCC1 [Cyclohexanone]
Relative Rate [1, 5]: 0

ClC(Cl)Cl [Chloroform]
Relative Rate ([1]; pH 5.5, 960 min): 0

Diolein
% Acid [1, 4]: 42%
Rate ([1]; as E158): 4

CCCCCCCC/C=C\CCCCCCCC(=O)O [oleic acid]
Final % Acid [1, 7]: 39%
Rate [1, 7]: 1.2 µmol/h/mg
% Acid [1, 4]: 47%
% ee S-acid ([1]; None = CSC-2 alone): 96%
Rate ([1]; as E158): 3
Isolated % ee (S-Acid) [1]: 88%

ClCCCl [Ethylene dichloride]
Relative Rate [1, 5]: 0

POE-20 stearyl ether [Brij 78]
Relative Rate [1, 3]: 14

CCCCC/C=C\C/C=C\CCCCCCCC(=O)OCC(O)COC(=O)CCCCCCC/C=C\C/C=C\CCCCC [dilinolein]
% Acid [1, 6]: 20%

Span 20
Relative Rate [1, 3]: 75

CCCCO [n-Butanol]
Relative Rate [1, 5]: 0

Span 85
Final % Acid [1, 7]: 28.9%
Rate [1, 7]: 0.87 µmol/h/mg
% Acid [1, 8]: 28%
S-acid (% ee) ([1]; additive 200 ul): 96
% Acid [1, 9]: 33%
% Acid [1, 10]: 34%
% ee [1]: 93% and 96% and 95% and 97%
Isolated % ee (S-Acid) [1]: 95.1%
Relative Rate [1, 3]: 181

POE-2 oleyl ether [Brij 92]
Relative Rate [1, 3]: 27

CCCCC/C=C\C/C=C\CCCCCCCC(=O)OCC(COC(=O)CCCCCCC/C=C\C/C=C\CCCCC)OC(=O)CCCCCCC/C=C\C/C=C\CCCCC [trilinoein]
% Acid [1, 6]: 20%

CCCCCCCCCCCCCCCCCC(=O)OCC(O)COC(=O)CCCCCCCCCCCCCCCCC [distearin]
% Acid [1, 6]: 30%

CCCCC/C=C\C/C=C\CCCCCCCC(=O)O [linoleic acid]
% Acid [1, 6]: 21%

CCCCCCCCCCCCCCCCCC(=O)OCC(O)CO (stereo not shown) [monostearin]
% Acid [1, 6]: 31%

POE-10 stearyl ether [Brij 76]
Relative Rate [1, 3]: 18

OCc1ccccc1 [Benzyl alcohol]
Relative Rate [1, 5]: 0

CC/C=C\C/C=C\C/C=C\CCCCCCCC(=O)O [linolenic acid]
% Acid [1, 6]: 13%

POE-23 lauryl ether [Brij 35]
Relative Rate [1, 3]: 26

CCCCCCCCO [n-Octanol]
Relative Rate [1, 5]: 0

CCCCCCCC/C=C\CCCCCCCC(=O)OCC(COC(=O)CCCCCCC/C=C\CCCCCCCC)OC(=O)CCCCCCC/C=C\CCCCCCCC [triolein]
% Acid [1, 4]: 38%
Rate ([1]; as E158): 3

sorbitan sesquioleate [Arlacel 83]
% Acid [1, 8]: 30%
S-acid (% ee) ([1]; additive 200 ul): 99
% Acid [1, 9]: 30%
% Acid [1, 10]: 29%
Relative Rate [1, 3]: 172

CCc1ccccc1 [Ethylbenzene]
EE of S-acid [1]: 48%
Relative Rate [1, 11]: 18

ClCCl [Dichloromethane]
Relative Rate [1, 5]: 0

CC(C)OC(C)C [Isopropyl ether]
EE of S-acid ([1]; solvent/buffer 1:1 two phase, 26 hours): 69%
Relative Rate [1, 11]: 53

CCOC(C)=O [Ethyl acetate]
Relative Rate [1, 5]: 0

POE-10 oleyl ether [Brij 96]
Relative Rate [1, 3]: 27

CCCCC/C=C\C/C=C\CCCCCCCC(=O)OCC [Linoleic acid ethyl ester]
% Acid [1, 6]: 26%

CCOCC [Ethyl ether]
Relative Rate ([1]; pH 5.5, 960 min): 0

CCCCCCCC/C=C\CCCCCCCC(=O)OCC [oleic acid ethyl ester]
% Acid [1, 4]: 52%
% ee S-acid ([1]; None = CSC-2 alone): 96%
Rate ([1]; as E158): 4

Tween 40
Relative Rate [1, 3]: 29
